# Assay results: US20200000840A1, “USE OF CYCLODEXTRINS TO REDUCE ENDOCYTOSIS IN MALIGNANT AND NEURODEGENERATIVE DISORDERS” (priority 2016, published 2020)
# Values joined by “and” are separate entries in the source; they are usually repeats but may differ in a detail not shown here. Equal entries are not always repeated. “Also recorded” adds a separate entry of the source. Where two headings read alike, the source gives them in different places. Marks after values point to notes of the source that are not given here.
# Columns and labels:
# leukemia mouse models = settings: cited from earlier work
# [1] = cited from earlier work
# children with NPC = settings: cited from earlier work
# [2] = in vivo; cited from earlier work
# MCF-7 cells = assay: Wound healing / gap closure migration assay (CytoSelect CBA-120); assay type: cell-based, human; settings: treated 2 hours
# Experimental: (§1) Published results have shown that β-CD inhibits human MDA-MB 231 cell migration (Guerra et al. 2016). This inhibition was attributed to the ability of β-CD to “deplete cholesterol”. β-CD, however, depletes also phospholipids. […] Cells were cultured in 24-well culture plates (Cytoselect CBA-120, 0.9 mm wound healing/gap closure migration assay) for 24 hours with wound healing insert in place. […] Protocol: Warm up the 24-well plate (CBA-120, Cell BioLabs Inc.) with 0.9 mm CytoSelect Wound Healing Inserts at room temperature for 10 minutes. Using sterile forceps, orient the desired number of inserts in the plate wells with their “wound field” aligned in the same direction. Create a cell suspension containing 0.5-1.0×10^6 cells/ml in media containing 10% fetal bovine serum (FBS). Add 500 μL of cell suspension to each well by carefully inserting the pipette tip through the open end at the top of the insert. For optimal cell dispersion, add 250 μL of cell suspension to either side of the open ends at the top of the insert. Incubate cells in a cell culture incubator for 12-24 hours. Carefully remove the insert from the well to begin the wound healing assay. Use sterile forceps to grab and lift the insert slowly from the plate well. Slowly aspirate and discard the media from the wells. Wash wells with media to remove dead cells and debris. Finally, add media to wells to keep cells hydrated. Repeat wash if wells still have debris or unattached cells. When washing is complete, add media with FBS and/or compounds to continue cell culture and wound healing process. Agents that inhibit or stimulate cell migration can be added directly to the wells. Incubate cells in a cell culture incubator (2 hours) and then wash cells with PBS and then add fresh media without compounds. Incubate 12-24 hours before wash and fixing. Remove the fixation solution and add 400 μL of Cell Stain Solution to each well. Allow the stain to incubate with the cells for 15 minutes at room temperature. Aspirate and discard the solution. Carefully wash each stained well 3× with deionized water. Discard washes and allow cells to dry at room temperature. Cells that migrated into the wounded area or protruded from the border of the wound were visualized and photographed under an inverted microscope. Determine the surface area of the defined wound area: Total Surface Area=0.9 mm x length. Determine the surface area of the migrated cells into the wound area: Migrated Cell Surface Area=length of cell migration (mm)×2 x length. Percent Closure (%)=Migrated Cell Surface Area/Total Surface Area x 100.
# MDA-MB-231 cells = assay: as above; assay type: cell-based, human; settings: treated 2 hours
# Experimental: as §1
# rats [3] = settings: rat, in vivo; cited from earlier work
# [4] = test system: transgenic mouse model of AD; settings: cited from earlier work
# BBB = settings: cited from earlier work; for Transport across BBB: 2 h
# [5] = test system: MDA-MB 231 and MCF-7 human breast epithelial cell lines; assay: Wound healing assay, overall statements for both cell lines; assay type: cell-based; settings: 1-4 mM
# Experimental: as §1
# human keratinocytes = settings: cited from earlier work
# mice, cats, one human = settings: cats, and one human; cited from earlier work
# [6] = Table 2; cited from earlier work
# rats [7] = settings: cited from earlier work
# rats [8] = settings: long-term parenteral administration, 200 mg/kg; cited from earlier work
# renal cancer cells = settings: triple combination treatment, mice implanted with renal cancer cells; cited from earlier work
# cats = settings: doses of 4-8 g/kg; cited from earlier work
# transferrin endocytosis = settings: 10 mM; cited from earlier work
# rats [9] = settings: cited from earlier work; remark: listed apart in the source
# animal studies = settings: cited from earlier work
# [10] = parenteral administration; cited from earlier work
# human erythrocytes = settings: cited from earlier work
# [11] = cited from earlier work; remark: listed apart in the source
# rats [12] = settings: rat, in vivo, cited from earlier work
# rats [13] = settings: 1.000 g/kg daily; cited from earlier work
# erythrocytes = settings: cited from earlier work
# [14] = parenteral delivery; cited from earlier work
# [15] = cyclosporine eye-drops; cited from earlier work
smiles,measurement,setting,value
"CC(O)COC[C@H]1O[C@@H]2O[C@H]3[C@H](O)[C@@H](O)[C@@H](O[C@H]4[C@H](O)[C@@H](O)[C@@H](O[C@H]5[C@H](O)[C@@H](O)[C@@H](O[C@H]6[C@H](O)[C@@H](O)[C@@H](O[C@H]7[C@H](O)[C@@H](O)[C@@H](O[C@H]8[C@H](O)[C@@H](O)[C@@H](O[C@H]1[C@H](O)[C@H]2O)O[C@@H]8COCC(C)O)O[C@@H]7COCC(C)O)O[C@@H]6COCC(C)O)O[C@@H]5COCC(C)O)O[C@@H]4COCC(C)O)O[C@@H]3COCC(C)O (stereo partly drawn) [HPbCD, hydroxypropyl-beta-cyclodextrin]",survival,leukemia mouse models,prolonged survival
same,oral absorption in rats,[1],≤3%
same,side effects,"children with NPC; about 2500 mg/kg bi-weekly, over a year, two children with NPC",no discernable side effects
same,tolerability,"children with NPC; children with NPC, doses of up to 1000 mg/kg/d",well tolerated
same,hearing,children with NPC; steady state IV doses of 2.5 g/kg bi-weekly for >1 yr,Hearing unaffected despite receiving steady state IV doses of
same,Vol. of distribution (VD),[2],0.2 L/kg
same,half-life (t1/2),[2],1.7 to 1.9 h
same,average wound closure,MCF-7 cells; 1 mM,73.33%
same,"wound closure (Percent Closure), replications r1-r3",MCF-7 cells; 1 mM,68.00% and 74.00% and 78.00%
same,average wound closure,MCF-7 cells; 2 mM,48.33%
same,"wound closure (Percent Closure), replications r1-r3",MCF-7 cells; 2 mM,41.00% and 48.00% and 56.00%
same,average wound closure,MCF-7 cells; 4 mM,33.67%
same,"wound closure (Percent Closure), replications r1-r3",MCF-7 cells; 4 mM,32.00% and 28.00% and 41.00%
same,average wound closure,MDA-MB-231 cells; 1 mM,67.67%
same,"wound closure (Percent Closure), replications r1-r3",MDA-MB-231 cells; 1 mM,62.00% and 68.00% and 73.00%
same,average wound closure,MDA-MB-231 cells; 2 mM,56.00%
same,"wound closure (Percent Closure), replications r1-r3",MDA-MB-231 cells; 2 mM,48.00% and 59.00% and 61.00%
same,average wound closure,MDA-MB-231 cells; 4 mM,39.00%
same,"wound closure (Percent Closure), replications r1-r3",MDA-MB-231 cells; 4 mM,48.00% and 44.00% and 25.00%
same,toxic effects at 1 g/kg,rats [3],did not cause adverse clinical signs
same,neuroprotection,[4],neuroprotective effects
same,BBB breakdown,BBB,2.5 mM
same,migration versus concentration,[5],migration decreased with higher concentration
same,apoptotic cell death,human keratinocytes,not apoptotic
same,hearing loss,"mice, cats, one human",risk of causing permanent hearing loss
same,Solubility in water,[6],>600 mg/mL
same,acute i.v. toxicity in rats,rats [7],10 g/kg
same,bone mineral density (BMD),rats [8],decrease bone mineral density
same,tumor regression,renal cancer cells,necessary in triple combination treatment for tumor regression
same,hearing loss,cats,permanent hearing loss
"OC[C@H]1O[C@@H]2O[C@H]3[C@H](O)[C@@H](O)[C@@H](O[C@H]4[C@H](O)[C@@H](O)[C@@H](O[C@H]5[C@H](O)[C@@H](O)[C@@H](O[C@H]6[C@H](O)[C@@H](O)[C@@H](O[C@H]7[C@H](O)[C@@H](O)[C@@H](O[C@H]1[C@H](O)[C@H]2O)O[C@@H]7CO)O[C@@H]6CO)O[C@@H]5CO)O[C@@H]4CO)O[C@@H]3CO [α-cyclodextrin, alpha-cyclodextrin]",reduction of transferrin endocytosis,transferrin endocytosis,20%
same,"nephrosis, single dose s.c.",rats [9]; 0.100 g/kg,0.100 no changes
same,"nephrosis, single dose s.c.",rats [9]; 1.000 g/kg,1.000 changes seen
same,ototoxicity,animal studies,did not show ototoxicity
same,renal toxicity,[10],showed renal toxicity
same,oral absorption in rats,[1],2-3%
same,tolerance by human erythrocytes,human erythrocytes,better then β-CD
same,hemolytic activity,"human erythrocytes; human erythrocytes, listed as α-CD",β-CD>α-CD>γ-CD; also recorded: lower than that of both β-CD and HP-β-CD
same,Transport across BBB,BBB; 0.5 mM,21.5%
same,Transport across BBB,BBB; 1 mM,16.5%
same,BBB breakdown,BBB,1 mM
same,"toxicity in the BBB model, comparison of CDs",BBB,most toxic among the three native CDs
same,apoptotic cell death,human keratinocytes,not apoptotic
same,"i.v. toxicity, 1 g daily",[11],1 died after 2 d
same,Solubility in water,[6],130 to 145 mg/mL
same,acute i.v. toxicity in rats,rats [7],0.5 to 0.8 g/kg
same,single dose i.v. LD50,rats [12]; iv,0.788/1.008 * g/kg
same,LD50,rats [12],1008 mg/kg
same,"nephrosis, 1, 2, 3, 4, or 7 daily doses s.c.",rats [13],1.000 severe nephrosis
same,phospholipids released,erythrocytes; 10 mM,30%
same,release of phospholipids on increasing concentration,erythrocytes; above 10 mM,does not increase release of phospholipids
same,cholesterol extraction,erythrocytes,negligible even at hemolytic concentrations
same,excretion,[14],excreted almost completely in an intact form into the urine
same,tolerability in eye-drops,[15],well tolerated
